Measurements: patent publication US7714105B2, “Use of fragments of oxytocin for the preparation of a pharmaceutical composition in order to create eustasis” (priority 2001, dated 2010)
Ends that are not written are not given here.

Tests used:
Format in all cases: in vivo, rat
Gastrin = experiment: Plasma gastrin determination by immunoassay; details: 1 mg/kg s.c. for five consecutive days, trunk blood four days after end of treatment, mean ± SD, in pmol/L
Description: (§1) Animals. Eight week-old male Sprague-Dawley rats (280-300 g) were obtained from B&K Universal AB, Sollentuna, Sweden.
(§2) Experimental procedure. SEQ ID NO: 5 was dissolved in physiological saline (1 mg/ml) and administered subcutaneously to six rats at a dose of 1 mg/kg for five consecutive days. Six rats received physiological saline only as a control. Two days after the last treatment, the rats were exposed to blood pressure determination with the cuff technique. The locomotor behaviour was studied three days after the end of the treatment. The next day the animals were decapitated and blood was collected.
(§3) Statistics. The results are presented as means ±SD. Statistical analysis was performed by means of 2-way ANOVA followed by Bonferroni's test for post hoc comparison. A Students t-test was performed. p-values of 0.05 or less were regarded as statistically significant.
(§4) Trunk blood was collected in ice-chilled tubes, containing heparin (10 IU/ml) (Pharmacia-Upjohn, Stockholm, Sweden) and aprotinin (500 IU/ml) (Trasylol, Bayer, Germany). The blood samples were centrifuged and plasma was removed and frozen (−20° C.).
Gastrin was immunoassayed as described by Smedh, U., and Uvnäs-Moberg, K. (1994) Intracerebroventricularly administered corticotropin-releasing factor releases somatostatin through a colinergic, vagal pathway in freely fed rats. Acta Physiol Scand 151, 241-247. […]

CCK = experiment: Plasma cholecystokinin (CCK) determination by immunoassay; details: 1 mg/kg s.c. for five consecutive days, trunk blood four days after end of treatment, mean ± SD, in pmol/L
Description: as §1, §2, §3, §4
CCK was immunoassayed as described by Smedh and Uvnäs Moberg, supra. Plasma samples were purified with reversed-phase chromatography using C18 Waters SEP PAK cartridges. […]

Oxytocin = experiment: Plasma oxytocin determination by radioimmunoassay; details: 1 mg/kg s.c. for five consecutive days, trunk blood four days after end of treatment, mean ± SD, in pmol/L
Description: as §1, §2, §3
Trunk blood was collected in ice-chilled tubes, containing heparin (10 IU/ml) (Pharmacia-Upjohn, Stockholm, Sweden) and aprotinin (500 IU/ml) (Trasylol, Bayer, Germany). […]
Oxytocin was measured with a specific radioimmunoassay developed in this laboratory (Stock, S., and Uvnäs-Moberg, K. (1988). Increased plasma levels of oxytocin in response to stimulation of the sciatic and vagal nerves and in response to touch and pinch in anaesthetized rats. Acta Physiol Scand 132, 29-34.). […]

male Sprague-Dawley rats [1] = experiment: Measurement of blood pressure with tail cuff on conscious animals; details: 1 mg/kg s.c. for five consecutive days, two days after last treatment
Description: as §1, §2, §3
Blood pressure and heart rate were measured on conscious animals by placing a cuff (Kent RTBP-002, Somedic Sales, Farsta, Sweden) on the base of the tail. The cuff was connected to a Grass 7P8 sphygmanometer and a Grass 7P8DC amplifier with a printer. The rats were habituated to the entire test procedure for 2-3 weeks before the procedure started.

male Sprague-Dawley rats [2] = experiment: Locomotor activity observations in open-field arena; details: 1 mg/kg subcutaneously for five consecutive days, studied three days after end of treatment, vs saline control
Description: as §1, §2, §3
Two identical frames of photocells were placed at two levels, 40 and 125 mm above the floor, respectively. The open-field was enclosed in a ventilated, sound-attenuating box with a Perspex top. Measurements were made in the dark and performed between 0.900-16.00 h.
The number of photocell beam interruptions were collected on an IBM-compatible PC computer allowing the registration of locomotor activity (all interruptions of photobeams at the lower level) and rearing (all interruptions of photobeams at the upper level). The data were subject to a square root transformation. For further details on the apparatus and the computer software used, including a schematic drawing of the equipment, see Ericson, E., Samuelsson, J., and Ahlenius, S. (1991). Photocell measurements of rat motor activity: A contribution to sensitivity and variation in behavioral observations. J Pharmacol Meth 25, 111-122. Furthermore, the peripheral activity was measured. By peripheral activity is meant that the animals are located in the corners of the arena. When the animals are frightened, they have a higher tendency to be located in the corners ie have a high peripheral activity. […]

## Cys-Pro-Leu-Gly-NH2 (CPLG-NH2) [SEQ ID NO: 5]
Gastrin
  Hormone levels in hormone treated rats (N = 6): Gastrin: 85 ± 19.3
CCK
  Hormone levels in hormone treated rats (N = 6): CCK: 8.4 ± 3.5
Oxytocin
  Hormone levels in hormone treated rats (N = 6): Oxytocin: 29.7 ± 7.2
Male Sprague-Dawley rats [1]; mean ± SD
  Diastolic blood pressure, value in hormone treated rats (N = 6): 87.3 ± 18.9
  Systolic blood pressure, value in hormone treated rats (N = 6): 116 ± 9.1
Male Sprague-Dawley rats [1]; vs saline control
  blood pressure: significantly decreased
Male Sprague-Dawley rats [2]
  amount of peripheral activity: decreased
  amount of rearing: significantly decreased
  locomotor activity: significantly decreased
